{
  "source": "ChEMBL document CHEMBL1201861",
  "about": "“Genomics of Drug Sensitity in Cancer screening data, Wellcome Trust Sanger Institute”",
  "assay_in_all_cases": "cells",
  "conditions_in_all_cases": "Homo sapiens",
  "key": {"M059J": {"test_system": "M059J", "type": "functional, cell-based", "description": "SANGER: Inhibition of human M059J cell growth in a cell viability assay."}, "SW-620": {"test_system": "SW-620", "type": "functional, cell-based", "description": "SANGER: Inhibition of human SW620 cell growth in a cell viability assay."}, "NB12": {"test_system": "NB12", "type": "functional, cell-based", "description": "SANGER: Inhibition of human NB12 cell growth in a cell viability assay."}, "Detroit 562": {"test_system": "Detroit 562", "type": "functional, cell-based", "description": "SANGER: Inhibition of human Detroit562 cell growth in a cell viability assay."}, "EGI-1": {"test_system": "EGI-1", "type": "functional, cell-based", "description": "SANGER: Inhibition of human EGI-1 cell growth in a cell viability assay."}, "RPMI-7951": {"test_system": "RPMI-7951", "type": "functional, cell-based", "description": "SANGER: Inhibition of human RPMI-7951 cell growth in a cell viability assay."}, "NCI-H1792": {"test_system": "NCI-H1792", "type": "functional, cell-based", "description": "SANGER: Inhibition of human NCI-H1792 cell growth in a cell viability assay."}, "SW626": {"test_system": "SW626", "type": "functional, cell-based", "description": "SANGER: Inhibition of human SW626 cell growth in a cell viability assay."}, "MDA-MB-157": {"test_system": "MDA-MB-157", "type": "functional, cell-based", "description": "SANGER: Inhibition of human MDA-MB-157 cell growth in a cell viability assay."}, "HuO9": {"test_system": "HuO9", "type": "functional, cell-based", "description": "SANGER: Inhibition of human HuO9 cell growth in a cell viability assay."}, "HCC1806": {"test_system": "HCC1806", "type": "functional, cell-based", "description": "SANGER: Inhibition of human HCC1806 cell growth in a cell viability assay."}, "COLO-792": {"test_system": "COLO-792", "type": "functional, cell-based", "description": "SANGER: Inhibition of human COLO-792 cell growth in a cell viability assay."}, "OVCAR-3": {"test_system": "OVCAR-3", "type": "functional, cell-based", "description": "SANGER: Inhibition of human OVCAR-3 cell growth in a cell viability assay."}, "G-401": {"test_system": "G-401", "type": "functional, cell-based", "description": "SANGER: Inhibition of human G-401 cell growth in a cell viability assay."}, "SK-HEP1": {"test_system": "SK-HEP1", "type": "functional, cell-based, SK-HEP-1", "description": "SANGER: Inhibition of human SK-HEP-1 cell growth in a cell viability assay."}, "Kasumi 1": {"test_system": "Kasumi 1", "type": "functional, cell-based", "description": "SANGER: Inhibition of human KASUMI-1 cell growth in a cell viability assay."}, "ABC-1": {"test_system": "ABC-1", "type": "functional, cell-based", "description": "SANGER: Inhibition of human ABC-1 cell growth in a cell viability assay."}, "WM-115": {"test_system": "WM-115", "type": "functional, cell-based", "description": "SANGER: Inhibition of human WM-115 cell growth in a cell viability assay."}, "BPH-1": {"test_system": "BPH-1", "type": "functional, cell-based", "description": "SANGER: Inhibition of human BPH-1 cell growth in a cell viability assay."}, "LCLC-103H cell line": {"test_system": "LCLC-103H cell line", "type": "functional, cell-based", "description": "SANGER: Inhibition of human LCLC-103H cell growth in a cell viability assay."}, "CAMA-1": {"test_system": "CAMA-1", "type": "functional, cell-based", "description": "SANGER: Inhibition of human CAMA-1 cell growth in a cell viability assay."}, "SW48": {"test_system": "SW48", "type": "functional, cell-based", "description": "SANGER: Inhibition of human SW48 cell growth in a cell viability assay."}, "DoTc2-4510": {"test_system": "DoTc2-4510", "type": "functional, cell-based"}, "TCC-SUP": {"test_system": "TCC-SUP", "type": "functional, cell-based", "description": "SANGER: Inhibition of human TCCSUP cell growth in a cell viability assay."}, "A204": {"test_system": "A204", "type": "functional, cell-based", "description": "SANGER: Inhibition of human A204 cell growth in a cell viability assay."}, "BHT-101": {"test_system": "BHT-101", "type": "functional, cell-based", "description": "SANGER: Inhibition of human BHT-101 cell growth in a cell viability assay."}, "RMG-I": {"test_system": "RMG-I", "type": "functional, cell-based", "description": "SANGER: Inhibition of human RMG-I cell growth in a cell viability assay."}, "SW1463": {"test_system": "SW1463", "type": "functional, cell-based", "description": "SANGER: Inhibition of human SW1463 cell growth in a cell viability assay."}, "HuP-T4": {"test_system": "HuP-T4", "type": "functional, cell-based", "description": "SANGER: Inhibition of human HuP-T4 cell growth in a cell viability assay."}, "HSC-3": {"test_system": "HSC-3", "type": "functional, cell-based", "description": "SANGER: Inhibition of human HSC-3 cell growth in a cell viability assay."}, "SK-LU-1": {"test_system": "SK-LU-1", "type": "functional, cell-based", "description": "SANGER: Inhibition of human SK-LU-1 cell growth in a cell viability assay."}, "GP5d": {"test_system": "GP5d", "type": "functional, cell-based", "description": "SANGER: Inhibition of human GP5d cell growth in a cell viability assay."}, "LN-405": {"test_system": "LN-405", "type": "functional, cell-based", "description": "SANGER: Inhibition of human LN-405 cell growth in a cell viability assay."}, "NCI-H460": {"test_system": "NCI-H460", "type": "functional, cell-based", "description": "SANGER: Inhibition of human NCI-H460 cell growth in a cell viability assay."}, "UMC-11": {"test_system": "UMC-11", "type": "functional, cell-based", "description": "SANGER: Inhibition of human UMC-11 cell growth in a cell viability assay."}, "CAL-39": {"test_system": "CAL-39", "type": "functional, cell-based", "description": "SANGER: Inhibition of human CAL-39 cell growth in a cell viability assay."}, "T98G": {"test_system": "T98G", "type": "functional, cell-based", "description": "SANGER: Inhibition of human T98G cell growth in a cell viability assay."}, "NCI-H520": {"test_system": "NCI-H520", "type": "functional, cell-based", "description": "SANGER: Inhibition of human NCI-H520 cell growth in a cell viability assay."}, "BCPAP": {"test_system": "BCPAP", "type": "functional, cell-based", "description": "SANGER: Inhibition of human BCPAP cell growth in a cell viability assay."}, "HN": {"test_system": "HN", "type": "functional, cell-based", "description": "SANGER: Inhibition of human HN cell growth in a cell viability assay."}, "NCI-H1623": {"test_system": "NCI-H1623", "type": "functional, cell-based", "description": "SANGER: Inhibition of human NCI-H1623 cell growth in a cell viability assay."}, "J82": {"test_system": "J82", "type": "functional, cell-based", "description": "SANGER: Inhibition of human J82 cell growth in a cell viability assay."}, "M14": {"test_system": "M14", "type": "functional, cell-based", "description": "SANGER: Inhibition of human M14 cell growth in a cell viability assay."}, "GAMG": {"test_system": "GAMG", "type": "functional, cell-based", "description": "SANGER: Inhibition of human GAMG cell growth in a cell viability assay."}, "CHL-1": {"test_system": "CHL-1", "type": "functional, cell-based", "description": "SANGER: Inhibition of human CHL-1 cell growth in a cell viability assay."}, "NB7": {"test_system": "NB7", "type": "functional, cell-based", "description": "SANGER: Inhibition of human NB7 cell growth in a cell viability assay."}, "RD": {"test_system": "RD", "type": "functional, cell-based", "description": "SANGER: Inhibition of human RD cell growth in a cell viability assay."}, "SF-295": {"test_system": "SF-295", "type": "functional, cell-based", "description": "SANGER: Inhibition of human SF295 cell growth in a cell viability assay."}, "CAL-72": {"test_system": "CAL-72", "type": "functional, cell-based", "description": "SANGER: Inhibition of human CAL-72 cell growth in a cell viability assay."}, "BFTC-905": {"test_system": "BFTC-905", "type": "functional, cell-based", "description": "SANGER: Inhibition of human BFTC-905 cell growth in a cell viability assay."}, "PANC-08-13": {"test_system": "PANC-08-13", "type": "functional, cell-based", "description": "SANGER: Inhibition of human PANC-08-13 cell growth in a cell viability assay."}},
  "data": [
    {"smiles": "Cn1cc(/C=C2\\C(=O)Nc3cccnc32)c2ccccc21", "values": [
      {"measurement": "IC50", "setting": "M059J", "result": "> 2000", "unit": "nM"},
      {"measurement": "IC50", "setting": "SW-620", "result": "> 2000", "unit": "nM"},
      {"measurement": "IC50", "setting": "NB12", "result": "> 2000", "unit": "nM"},
      {"measurement": "IC50", "setting": "Detroit 562", "result": "> 2000", "unit": "nM"},
      {"measurement": "IC50", "setting": "EGI-1", "result": "> 2000", "unit": "nM"},
      {"measurement": "IC50", "setting": "RPMI-7951", "result": "> 2000", "unit": "nM"},
      {"measurement": "IC50", "setting": "NCI-H1792", "result": "> 2000", "unit": "nM"},
      {"measurement": "IC50", "setting": "SW626", "result": "> 2000", "unit": "nM"},
      {"measurement": "IC50", "setting": "MDA-MB-157", "result": "> 2000", "unit": "nM"},
      {"measurement": "IC50", "setting": "HuO9", "result": "> 2000", "unit": "nM"},
      {"measurement": "IC50", "setting": "HCC1806", "result": "> 2000", "unit": "nM"},
      {"measurement": "IC50", "setting": "COLO-792", "result": "> 2000", "unit": "nM"},
      {"measurement": "IC50", "setting": "OVCAR-3", "result": "> 2000", "unit": "nM"},
      {"measurement": "IC50", "setting": "G-401", "result": "> 2000", "unit": "nM"},
      {"measurement": "IC50", "setting": "SK-HEP1", "result": "> 2000", "unit": "nM"},
      {"measurement": "IC50", "setting": "Kasumi 1", "result": "> 2000", "unit": "nM"},
      {"measurement": "IC50", "setting": "ABC-1", "result": "> 2000", "unit": "nM"},
      {"measurement": "IC50", "setting": "WM-115", "result": "> 2000", "unit": "nM"},
      {"measurement": "IC50", "setting": "BPH-1", "result": "> 2000", "unit": "nM"},
      {"measurement": "IC50", "setting": "LCLC-103H cell line", "result": "> 2000", "unit": "nM"},
      {"measurement": "IC50", "setting": "CAMA-1", "result": "> 2000", "unit": "nM"},
      {"measurement": "IC50", "setting": "SW48", "result": "> 2000", "unit": "nM"},
      {"measurement": "IC50", "setting": "DoTc2-4510", "result": "> 2000", "unit": "nM"},
      {"measurement": "IC50", "setting": "TCC-SUP", "result": "> 2000", "unit": "nM"},
      {"measurement": "IC50", "setting": "A204", "result": "> 2000", "unit": "nM"},
      {"measurement": "IC50", "setting": "BHT-101", "result": "> 2000", "unit": "nM"},
      {"measurement": "IC50", "setting": "RMG-I", "result": "> 2000", "unit": "nM"},
      {"measurement": "IC50", "setting": "SW1463", "result": "> 2000", "unit": "nM"},
      {"measurement": "IC50", "setting": "HuP-T4", "result": "> 2000", "unit": "nM"},
      {"measurement": "IC50", "setting": "HSC-3", "result": "> 2000", "unit": "nM"},
      {"measurement": "IC50", "setting": "SK-LU-1", "result": "> 2000", "unit": "nM"},
      {"measurement": "IC50", "setting": "GP5d", "result": "> 2000", "unit": "nM"},
      {"measurement": "IC50", "setting": "LN-405", "result": "> 2000", "unit": "nM"},
      {"measurement": "IC50", "setting": "NCI-H460", "result": "> 2000", "unit": "nM"},
      {"measurement": "IC50", "setting": "UMC-11", "result": "> 2000", "unit": "nM"},
      {"measurement": "IC50", "setting": "CAL-39", "result": "> 2000", "unit": "nM"},
      {"measurement": "IC50", "setting": "T98G", "result": "> 2000", "unit": "nM"},
      {"measurement": "IC50", "setting": "NCI-H520", "result": "> 2000", "unit": "nM"},
      {"measurement": "IC50", "setting": "BCPAP", "result": "> 2000", "unit": "nM"},
      {"measurement": "IC50", "setting": "HN", "result": "> 2000", "unit": "nM"},
      {"measurement": "IC50", "setting": "NCI-H1623", "result": "> 2000", "unit": "nM"},
      {"measurement": "IC50", "setting": "J82", "result": "> 2000", "unit": "nM"},
      {"measurement": "IC50", "setting": "M14", "result": "> 2000", "unit": "nM"},
      {"measurement": "IC50", "setting": "GAMG", "result": "> 2000", "unit": "nM"},
      {"measurement": "IC50", "setting": "CHL-1", "result": "> 2000", "unit": "nM"},
      {"measurement": "IC50", "setting": "NB7", "result": 1980, "unit": "nM"},
      {"measurement": "IC50", "setting": "RD", "result": "> 2000", "unit": "nM"},
      {"measurement": "IC50", "setting": "SF-295", "result": "> 2000", "unit": "nM"},
      {"measurement": "IC50", "setting": "CAL-72", "result": "> 2000", "unit": "nM"},
      {"measurement": "IC50", "setting": "BFTC-905", "result": "> 2000", "unit": "nM"},
      {"measurement": "IC50", "setting": "PANC-08-13", "result": "> 2000", "unit": "nM"}
    ]}
  ]
}
